Test results from patent publication US20250289804A1, “SUBSTITUTED INDOLE COMPOUNDS AND METHODS OF USE THEREOF” (NOVARTIS PHARMA AG, priority 2021, published 2025).
Where two headings read alike, the source gives them in different places.

What was measured:
[1] = target: human C3bBb (Homo sapiens (Human), UniProt P00751); assay: Human C3bBb enzyme assay (C3a generation from C3, ELISA); assay type: biochemical; conditions: read-out: Human C3b:Bb IC50 Avg
Protocol: Compounds disclosed herein were evaluated for their potency to inhibit human C3bBb in a biochemical assay. To generate active C3bBb complex in vitro, purified human C3b (Complement Technology, A114), CFB (Complement Technology, A135) and CFD (Complement Technology, A136) were mixed in a 1:1:1 ratio to a final concentration of 1 μM each in the C3bBb assay buffer (PBS pH 7.4, 100 μM NiCl2, 0.05% (w/v) CHAPS). The reaction mix was incubated at room temperature for 30 minutes on a rotating platform. […] On the day of the enzyme assay, a reaction mixture containing 3 nM C3bBb complex and 1 μM purified human C3 (Complement Technology, A113) was prepared in the C3bBb assay buffer. Compounds were serial diluted 3-fold in 100% DMSO for a 10-point dose-response curve. A 0.5 μL aliquot of diluted compound solution was transferred to a conical bottom 96-well plate, before 49.5 μL of the reaction mix was added to each well to initiate the reaction. The plate was incubated for 1 hour at room temperature. […] The generation of C3a from C3 by the C3bBb complex was measured using the MicroVue C3a Plus EIA ELISA kit (Quidel, A031). The concentration of C3a from each well was calculated using a standard curve. Percent inhibition values were generated using the baseline (C3 only) and the maximum control (DMSO instead of compound), and IC50 of each compound was calculated using 4-parameter logistic regression.

[2] = test system: MAC formation in normal human serum; assay: Human serum MAC formation assay (zymosan-coated plates, 50% normal human serum); conditions: 50% normal human serum with EGTA, 37° C. 30 minutes
Protocol: MAC deposition assay using normal human serum was applied to evaluate compound potency under physiologically relevant conditions. Black Maxisorp plates (Thermo Fisher, 437111) were coated with preactivated zymosan (Complement Technology, B400) at 0.5 mg/mL in carbonate buffer (pH 9.5, Sigma, C3041) at room temperature overnight. Compounds were serial diluted 3-fold in 100% DMSO for a 10-point dose-response curve. Normal human serum (Complement Technology, NHS) was diluted to 50% (v/v) with the gelatin buffer (4.2 mM HEPES pH 7.4, 0.15 mM CaCl2, 141 mM NaCl, 4.5 mM MgCl2, 0.1% gelatin) containing 20 mM EGTA or 20 mM EDTA. In conical bottom 96-well plates, 1 μL compound and 99 μL of serum-EGTA were mixed. Serum-EDTA was used as baseline control. The serum-compound mixture was incubated at room temperature for 15 minutes before being transferred to the washed zymosan plate for complement activation at 37° C. for 30 minutes. The reaction was terminated by decanting the reaction mixture and adding blocking buffer (Thermo Fisher, 37539) for 20 minutes. MAC formation on the ELISA plate was detected using 0.2 μg/mL mouse anti-human C9 neoepitope monoclonal antibody (Thermo Fisher, MA5-33373) diluted in phosphate-buffered saline with 0.05% Tween-20 (PBST). A goat anti-mouse IgG-HRP antibody (Thermo Fisher, A16072) was used at 1:2000 in PBST as secondary antibody. After washing, the reaction was developed using QuantaBlu (Thermo Fisher, 15169) for 20 minutes at room temperature. The plates were read at 325 nm excitation and 420 nm emission wavelengths. Percent inhibition values were generated using the baseline (EDTA-serum) and the maximum control (EGTA-serum). An IC50 for each compound was calculated using 4-parameter logistic regression.

[3] = starred values: assay conducted with 1 nM C3b:Bb enzyme
[4] = 3 nM C3bBb complex, 1 μM human C3, 1 hour room temperature

Chain of human C3bBb (P00751 260-764): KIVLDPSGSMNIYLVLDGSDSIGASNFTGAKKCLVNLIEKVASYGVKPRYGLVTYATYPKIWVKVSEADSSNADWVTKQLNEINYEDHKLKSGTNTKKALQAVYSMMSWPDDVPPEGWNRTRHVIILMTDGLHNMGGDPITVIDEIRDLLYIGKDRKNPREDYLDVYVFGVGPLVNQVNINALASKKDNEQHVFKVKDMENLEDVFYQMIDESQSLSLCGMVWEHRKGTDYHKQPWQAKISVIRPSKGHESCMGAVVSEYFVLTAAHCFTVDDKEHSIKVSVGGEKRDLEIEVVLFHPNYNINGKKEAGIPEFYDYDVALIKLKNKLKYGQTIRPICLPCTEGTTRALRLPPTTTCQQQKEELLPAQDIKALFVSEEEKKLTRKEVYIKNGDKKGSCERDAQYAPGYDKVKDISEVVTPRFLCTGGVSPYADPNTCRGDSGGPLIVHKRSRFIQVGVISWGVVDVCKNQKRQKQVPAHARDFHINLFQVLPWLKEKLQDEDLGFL
Chain of human C3bBb (P01024 23-667 partner): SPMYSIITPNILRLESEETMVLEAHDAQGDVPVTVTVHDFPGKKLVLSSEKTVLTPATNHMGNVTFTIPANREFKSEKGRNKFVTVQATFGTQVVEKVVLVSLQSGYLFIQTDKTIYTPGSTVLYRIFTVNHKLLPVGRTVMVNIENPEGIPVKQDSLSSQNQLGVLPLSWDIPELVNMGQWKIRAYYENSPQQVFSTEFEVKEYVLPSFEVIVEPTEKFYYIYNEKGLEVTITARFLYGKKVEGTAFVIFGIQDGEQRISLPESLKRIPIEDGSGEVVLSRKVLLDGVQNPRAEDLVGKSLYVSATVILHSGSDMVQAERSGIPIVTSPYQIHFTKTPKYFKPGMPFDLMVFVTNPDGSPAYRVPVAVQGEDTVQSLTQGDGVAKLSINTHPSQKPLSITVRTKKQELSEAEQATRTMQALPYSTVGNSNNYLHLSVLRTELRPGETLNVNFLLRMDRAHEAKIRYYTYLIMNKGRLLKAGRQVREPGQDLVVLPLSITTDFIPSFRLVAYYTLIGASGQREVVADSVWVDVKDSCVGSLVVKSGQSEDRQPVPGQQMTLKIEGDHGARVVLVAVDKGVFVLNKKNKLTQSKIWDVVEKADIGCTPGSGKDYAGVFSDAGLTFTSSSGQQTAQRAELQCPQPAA
Chain of human C3bBb (P01024 749-1663 partner): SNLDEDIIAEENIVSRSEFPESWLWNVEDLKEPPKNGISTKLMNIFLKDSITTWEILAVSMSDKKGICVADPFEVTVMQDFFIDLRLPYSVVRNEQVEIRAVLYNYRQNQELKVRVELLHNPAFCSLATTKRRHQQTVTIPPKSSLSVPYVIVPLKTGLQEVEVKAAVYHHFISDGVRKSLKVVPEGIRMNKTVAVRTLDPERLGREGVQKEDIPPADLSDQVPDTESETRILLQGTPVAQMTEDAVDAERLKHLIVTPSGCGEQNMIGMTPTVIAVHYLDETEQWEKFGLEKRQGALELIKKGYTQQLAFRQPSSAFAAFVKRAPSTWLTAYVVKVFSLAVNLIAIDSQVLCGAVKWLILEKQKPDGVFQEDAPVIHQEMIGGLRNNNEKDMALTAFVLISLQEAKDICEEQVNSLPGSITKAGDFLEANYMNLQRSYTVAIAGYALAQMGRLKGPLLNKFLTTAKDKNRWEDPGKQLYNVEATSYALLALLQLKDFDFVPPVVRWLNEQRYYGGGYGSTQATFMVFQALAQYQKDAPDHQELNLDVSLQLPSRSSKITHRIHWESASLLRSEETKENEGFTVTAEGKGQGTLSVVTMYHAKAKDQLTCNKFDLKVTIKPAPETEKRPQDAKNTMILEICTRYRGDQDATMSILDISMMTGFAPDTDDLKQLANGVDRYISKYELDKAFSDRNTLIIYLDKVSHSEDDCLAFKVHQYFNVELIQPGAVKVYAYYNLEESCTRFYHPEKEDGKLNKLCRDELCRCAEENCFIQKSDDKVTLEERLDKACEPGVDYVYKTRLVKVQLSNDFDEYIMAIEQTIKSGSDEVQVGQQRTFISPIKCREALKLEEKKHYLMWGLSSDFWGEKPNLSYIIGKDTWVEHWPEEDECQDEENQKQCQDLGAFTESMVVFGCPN

Structure (SMILES)	IC50 [1, 3] [nM]	IC50 [1, 4] [nM]	IC50 [2] [nM]
COc1cc(C)c2[nH]ccc2c1CN1CCC2(C[C@H]1c1ccc(C(=O)O)cc1)CC1(CC1)C2 [Example 51, (S)-4-(8-((5-methoxy-7-methyl-1H-indol-4-yl)methyl)-8-azadispiro[2.1.5^5.1^3]undecan-7-yl)benzoic acid]	< 10		< 100
COc1cc(C)c2[nH]ccc2c1CN1CC[C@H](c2ccccn2)C[C@H]1c1ccc(C(=O)O)cc1 [Example 38, 4-((2S,4S)-1-((5-methoxy-7-methyl-1H-indol-4-yl)methyl)-4-(pyridin-2-yl)piperidin-2-yl)benzoic acid]		50 to 100	200 to 300
COc1cc(C)c2[nH]ccc2c1CN1CC[C@]2(C[C@H]1c1ccc(C(=O)O)cc1)C[C@@H](C#N)C2 (single isomer, unassigned) [Example 55, 4-((2R,4s,6S)-2-cyano-7-((5-methoxy-7-methyl-1H-indol-4-yl)methyl)-7-azaspiro[3.5]nonan-6-yl)benzoic acid or 4-((2S,4r,6S)-2-cyano-7-((5-methoxy-7-methyl-1H-indol-4-yl)methyl)-7-azaspiro[3.5]nonan-6-yl)benzoic acid]	< 10		< 100
COc1cc(C)c2[nH]ccc2c1CN1CC[C@H](N2CCCC2=O)C[C@H]1c1ccc(C(=O)O)cc1 [Example 13, 4-((2S,4S)-1-((5-methoxy-7-methyl-1H-indol-4-yl)methyl)-4-(2-oxopyrrolidin-1-yl)piperidin-2-yl)benzoic acid]	50 to 100		100 to 200
COc1cc(C)c2[nH]ccc2c1CN1CCN(CC(F)(F)F)C[C@H]1c1ccc(C(=O)O)cc1 [Example 65, (R)-4-(1-((5-methoxy-7-methyl-1H-indol-4-yl)methyl)-4-(2,2,2-trifluoroethyl)piperazin-2-yl)benzoic acid]	10 to 25		200 to 300
COc1cc(C)c2[nH]ccc2c1CN1CC[C@H](n2cc(S(C)(=O)=O)cn2)C[C@H]1c1ccc(C(=O)O)cc1 (racemic) [Example 11, (±)-trans-4-(1-((5-methoxy-7-methyl-1H-indol-4-yl)methyl)-4-(4-methylsulfonyl)-1H-pyrazol-1-yl)piperidin-2-yl)benzoic acid]		> 100	> 500
Cc1cc(C2CC2)c(CN2CC[C@H](NC3CC(F)(F)C3)C[C@H]2c2ccc(C(=O)O)cc2)c2cc[nH]c12 [Example 25, 4-((2S,4S)-1-((5-cyclopropyl-7-methyl-1H-indol-4-yl)methyl)-4-((3,3-difluorocyclobutyl)amino)piperidin-2-yl)benzoic acid]	< 10		< 100
COc1cc(C)c2[nH]ccc2c1CN1CC[C@H](n2cc(Br)cn2)C[C@H]1c1ccc(C(=O)O)cc1 (racemic) [Example 2, (±)-trans-4-(4-(4-bromo-1H-pyrazol-1-yl)-1-((5-methoxy-7-methyl-1H-indol-4-yl)methyl)piperidin-2-yl)benzoic acid]		50 to 100	300 to 500
COc1cc(C)c2[nH]ccc2c1CN1CC[C@]2(C[C@H]1c1ccc(C(=O)O)cc1)C[C@@H](C(F)F)C2 (single isomer, unassigned) [Example 47, 4-((2R,4s,6S)-2-(difluoromethyl)-7-((5-methoxy-7-methyl-1H-indol-4-yl)methyl)-7-azaspiro[3.5]nonan-6-yl)benzoic acid or 4-((2S,4r,6S)-2-(difluoromethyl)-7-((5-methoxy-7-methyl-1H-indol-4-yl)methyl)-7-azaspiro[3.5]nonan-6-yl)benzoic acid]	< 10		< 100
Cc1cc(C2CC2)c(CN2CC[C@H](N3CC4(CC4)C3)C[C@H]2c2ccc(C(=O)O)cc2)c2cc[nH]c12 [Example 78, 4-((2S,4S)-1-((5-cyclopropyl-7-methyl-1H-indol-4-yl)methyl)-4-(5-azaspiro[2.3]hexan-5-yl)piperidin-2-yl)benzoic acid]	25 to 50		100 to 200

Further lines, with some results ahead:

IC50 [1, 3] [nM]	IC50 [1, 4] [nM]	Structure (SMILES)	IC50 [2] [nM]
> 100		COc1cc(C)c2[nH]ccc2c1CN1CC[C@@]2(CCCO2)C[C@H]1c1ccc(C(=O)O)cc1 (single isomer, unassigned) [Example 33, 4-((5S,7S)-8-((5-methoxy-7-methyl-1H-indol-4-yl)methyl)-1-oxa-8-azaspiro[4.5]decan-7-yl)benzoic acid or 4-((5R,7S)-8-((5-methoxy-7-methyl-1H-indol-4-yl)methyl)-1-oxa-8-azaspiro[4.5]decan-7-yl)benzoic acid]	> 500
	> 100	COc1cc(C)c2[nH]ccc2c1CN1CC[C@H](NS(N)(=O)=O)C[C@H]1c1ccc(C(=O)O)cc1 (racemic) [Example 16, (±)-trans-4-(1-((5-methoxy-7-methyl-1H-indol-4-yl)methyl)-4-(sulfamoylamino)piperidin-2-yl)benzoic acid]	300 to 500
10 to 25		COc1cc(C)c2[nH]ccc2c1CN1CC[C@H](NC2CC(F)(F)C2)C[C@H]1c1ccc(C(=O)O)cc1 [Example 24, 4-((2S,4S)-4-((3,3-difluorocyclobutyl)amino)-1-((5-methoxy-7-methyl-1H-indol-4-yl)methyl)piperidin-2-yl)benzoic acid]	200 to 300
< 10		COc1cc(C)c2[nH]ccc2c1CN1CC[C@@]2(C[C@H]1c1ccc(C(=O)O)cc1)CC2(F)F (stereo in doubt) [Example 30, 4-((3R,5S)- or ((3S,5S)-1,1-difluoro-6-((5-methoxy-7-methyl-1H-indol-4-yl)methyl)-6-azaspiro[2.5]octan-5-yl)benzoic acid]	100 to 200
< 10		COc1cc(C)c2[nH]ccc2c1CN1CCC2(COC2)CC1c1ccc(C(=O)O)cc1 (racemic) [Example 31, (±)-4-(7-((5-methoxy-7-methyl-1H-indol-4-yl)methyl)-2-oxa-7-azaspiro[3.5]nonan-6-yl)benzoic acid]	> 500
< 10		COc1cc(C)c2[nH]ccc2c1CN1CC[C@]2(C[C@H]1c1ccc(C(=O)O)cc1)C[C@@H](F)C2 (single isomer, unassigned) [Example 62, 4-((2R,4s,6S)-2-fluoro-7-((5-methoxy-7-methyl-1H-indol-4-yl)methyl)-7-azaspiro[3.5]nonan-6-yl)benzoic acid or 4-((2S,4r,6S)-2-fluoro-7-((5-methoxy-7-methyl-1H-indol-4-yl)methyl)-7-azaspiro[3.5]nonan-6-yl)benzoic acid]	< 100
< 10		COc1cc(C)c2[nH]ccc2c1CN1CC[C@H](CCC(F)(F)F)C[C@H]1c1ccc(C(=O)O)cc1 [Example 42, 4-((2S,4S)-1-((5-methoxy-7-methyl-1H-indol-4-yl)methyl)-4-(3,3,3-trifluoropropyl)piperidin-2-yl)benzoic acid]	200 to 300
50 to 100		COc1cc(C)c2[nH]ccc2c1CN1CC[C@H](NCC2(F)CC2)C[C@H]1c1ccc(C(=O)O)cc1 [Example 23, 4-((2S,4S)-4-(((1-fluorocyclopropyl)methyl)amino)-1-((5-methoxy-7-methyl-1H-indol-4-yl)methyl)piperidin-2-yl)benzoic acid]	300 to 500
50 to 100		COc1cc(C)c2[nH]ccc2c1CN1CC[C@H](C2CCC2)C[C@H]1c1ccc(C(=O)O)cc1 (mixture of isomers) [Example 43, 4-((2S,4S)-4-cyclobutyl-1-((5-methoxy-7-methyl-1H-indol-4-yl)methyl)piperidin-2-yl)benzoic acid and 4-((2S,4R)-4-cyclobutyl-1-((5-methoxy-7-methyl-1H-indol-4-yl)methyl)piperidin-2-yl)benzoic acid]	> 500
< 10		COc1cc(C)c2[nH]ccc2c1CN1CC[C@H](NC2COC2)C[C@H]1c1ccc(C(=O)O)cc1 [Example 18, 4-((2S,4S)-1-((5-methoxy-7-methyl-1H-indol-4-yl)methyl)-4-(oxetan-3-ylamino)piperidin-2-yl)benzoic acid]	100 to 200
